# Data published in patent US20240197823A1, “CATIONIC ANTIMICROBIAL PEPTIDES AND USES THEREOF” (priority 2021, published 2024).
# Read-outs that look alike come from different tables or passages of the source. Positions of bridges follow the written chain, without caps; N, C: chain ends. Non-standard residues stand in square brackets, D forms with d. Residues, ends and D or L forms follow the SMILES beside them. No end group written: not given here. *: point of attachment. Heptanoyl(5-Me) = CCC(C)CCCC(=O)*; Dab = NCC[C@H](N)C(=O)O
# What was measured:
# [1] = tested on: MDR strain PA239; assay: Membrane permeabilization, PI incorporation by flow cytometry; assay type: cell-based, Pseudomonas aeruginosa; details: PA239, 1% triton X-100
# From the text: (§1) Determination of membrane permeabilization. To examine whether the selected peptides kill their bacterial target mainly by membrane permeabilization, this study used PI incorporation by the MDR strain PA239 (5×10^8 CFU/mL) quantitated by flow cytometry (Novocyte, USA) or visualized by video imaging using the digital microscope EVOS M7000 (Thermo-Fisher, USA) in bright field or red fluorescence channel. In the flow cytometry experiments [Deslouches B et al., 2015], bacterial cells were either untreated or treated with different peptide E35 concentrations in MHB2 for 1 hour at 37° C. The bacteria-peptide mixture was washed with PBS using an Eppendorf centrifuge at top speed for 7 minutes and incubated with PI in the dark for 15 min at room temperature. Tobramycin was used as a negative control with a 3-hour long incubation. For video imaging, the broth medium was reduced to 20% in PBS (treated or untreated) to decrease the rate of cell division and PI incorporation assessed over time. Video images were recorded in real time using the 40× objective either in bright field or red fluorescence channel.
# [2] = tested on: human red blood cells; details: at 16 μM, published data; cited from earlier work
# [3] = Mouse toxicity, maximum tolerated dose; assay type: in vivo, CD-1 mice
# Protocol: Mouse toxicity. For all animal experiments, the protocol #18071776 approved by the Institutional Animal Care and Use Committee (IACUC) of the University of Pittsburgh was used, which is consistent with the NIH guide for the care and use of laboratory animals. In a preliminary (pilot) experiment, female CD-1 mice (3 per group) weighing about 20 g were injected different doses of peptides up to 45 mpk via a lateral tail vein (IV) to determine an MTD (dose that results in no apparent morbidity or mortality). To confirm the MTD determined in the pilot study, CD-1 mice (7 per group) were randomized to receive a dose based on the preliminary MTD (IV) or PBS (100 μL). The animals were monitored for up to 7 days for morbidity and survival.
# [4] = tested on: K. pneumoniae; assay: MIC growth inhibition assay in MHB2; assay type: cell-based, klebsiella pneumoniae
# Protocol: (§2) Bacteria. Bacterial clinical isolates, used for initial screening and in previous studies [Greber K E et al., 2017], were anonymously provided by the clinical microbiology laboratory of the University of Pittsburgh medical Center. The panel used for secondary screening was from CDC (Table 4), with resistance profiles data. Bacteria are stored in lock-secured −80° C. freezer and typically retrieved by obtaining single colonies on agar plates prior for subsequent liquid broth cultures. Suspensions of test bacteria were prepared from log phase of growth by diluting overnight cultures at 1:100 with fresh cation-adjusted MHB (MHB2, Millipore Sigma, USA) and incubating for additional 3-4 hours. Bacteria were spun at 3000×g for 10 minutes and the pellet resuspended in test condition media (Millipore Sigma, USA) to determine bacterial turbidity using a Den-1B densitometer (Grant Instruments, USA) at 0.5 McFarland (unit of bacterial density) corresponding to […].
# (§3) Antibacterial assays. To examine antibacterial activity, this study used minor modifications of a standard growth inhibition assay endorsed by the Clinical and Laboratory Standards Institute (CLSI), as previously described [Greber K E et al., 2017]. Bacteria were incubated with each of the indicated peptides in MHB2. The bacterial cells were kept in an incubator for 18 hours at 37° C., which is linked to a robotic system that feeds a plate reader every hour with one of 8×96-well plates. This set-up allows the collection of growth kinetic data at A 570 (absorbance at 570 nm) to examine growth inhibition in real time (BioTek Instruments, USA). […] To assess bactericidal properties of the peptide, the assay was modified by using 15% fetal bovine serum (FBS, for a more physiologically relevant test condition) mixed with 25% MHB2 and 60% PBS. Bacterial cells (colony forming unit/mL or CFU/mL) were enumerated after incubating treated bacteria for 3 hours and plating serially diluted samples on broth agar medium at 37° C. overnight. […] For killing kinetics, we slightly modified the bactericidal assay to examine bacterial killing at the MBC (or 2×MBC) as a function of time for up to 3 hours. Data were analyzed using GraphPad Prism software.
# [5] = tested on: MDR panel of gram-negative (GNB) and -positive (GPB) bacterial isolates classified as ESKAPE pathogens
# Protocol: as §2
# Antibacterial assays. To examine antibacterial activity, this study used minor modifications of a standard growth inhibition assay endorsed by the Clinical and Laboratory Standards Institute (CLSI), as previously described [Greber K E et al., 2017]. Bacteria were incubated with each of the indicated peptides in MHB2. The bacterial cells were kept in an incubator for 18 hours at 37° C., which is linked to a robotic system that feeds a plate reader every hour with one of 8×96-well plates. This set-up allows the collection of growth kinetic data at A 570 (absorbance at 570 nm) to examine growth inhibition in real time (BioTek Instruments, USA). […] To assess bactericidal properties of the peptide, the assay was modified by using 15% fetal bovine serum (FBS, for a more physiologically relevant test condition) mixed with 25% MHB2 and 60% PBS. Bacterial cells (colony forming unit/mL or CFU/mL) were enumerated after incubating treated bacteria for 3 hours and plating serially diluted samples on broth agar medium at 37° C. overnight. […] Data were analyzed using GraphPad Prism software.
# [6] = tested on: P. aeruginosa; assay: microbe, parasite or virus in culture; details: Pseudomonas aeruginosa, MHB2
# Protocol: as §2, §3
# [7] = tested on: E. coli; assay: microbe, parasite or virus in culture; details: Escherichia coli, MHB2
# Protocol: as §2, §3
# [8] = tested on: A. baumannii; assay: microbe, parasite or virus in culture; details: Acinetobacter baumannii
# Protocol: as §2, §3
# [9] = tested on: Enterobacter spp; assay: MIC growth inhibition assay in MHB2; assay type: cell-based, Enterobacter spp: EA (aerogenes), EC (cloacae); details: Enterobacter, CDC, MHB2
# Protocol: as §2, §3
# [10] = tested on: E. Faecium; assay: MIC growth inhibition assay in MHB2; assay type: cell-based, Enterococcus faecium; details: MHB2
# Protocol: as §2, §3
# [11] = tested on: S. aureus; assay: MIC growth inhibition assay in MHB2; assay type: cell-based, Staphylococcus aureus; details: MHB2
# Protocol: as §2, §3
# [12] = tested on: MDR strain PA239; assay: Membrane permeabilization, PI incorporation by real-time video imaging; assay type: cell-based, Pseudomonas aeruginosa; details: PA239 at high inoculum (5×10^8 CFU/mL); E35 at 8 μM
# From the text: as §1
# [13] = tested on: P. aeruginosa strain PA239; assay: Bactericidal assay in FBS-containing medium (FMP); assay type: cell-based, Pseudomonas aeruginosa; details: within the 3 h of incubation
# Protocol: (§4) To test whether PAX follow this common mechanism, the experiment initially examined the bactericidal activity of the top selection, PAX E35, against the MDR P. aeruginosa strain PA239 (resistant to all 12 test antibiotics, including colistin, Table 6). Bactericidal properties were assessed using a medium called FMP (FBS, 15%; MHB2, 25%; PBS, 60%) that is more physiologically relevant than MHB2 with the inclusion of saline and fetal bovine serum, a known inhibitory condition for many AMPs [Di Y P et al., 2020; Deslouches B et al., 2005]. […] In addition, E35 killed 2 logs of the bacterial cells within the first minute of treatment at 2 μM and 4 μM, compared to the non-effective tobramycin (FIG. 6B). No bacterial cells survived E35 treatment after 5-10 minutes of incubation. […]
# (§5) Antibacterial assays. […] The bacterial cells were kept in an incubator for 18 hours at 37° C., which is linked to a robotic system that feeds a plate reader every hour with one of 8×96-well plates. This set-up allows the collection of growth kinetic data at A 570 (absorbance at 570 nm) to examine growth inhibition in real time (BioTek Instruments, USA). […] MBC (minimum bactericidal concentration) was determined as the peptide concentration at which complete bacterial killing was observed [Rozek A et al., 2000]. […] Data were analyzed using GraphPad Prism software.
# [14] = tested on: P. aeruginosa strain PA239; assay: Killing kinetics; assay type: cell-based, Pseudomonas aeruginosa; details: PA239, at 2 μM and 4 μM
# Protocol: as §4, §5
compound,measurement,setting,value
triton X-100,PI incorporation,[1],55%
Ac-LKRVWKRVFKLLKRYWRQLKKPVR-NH2 [SAAP-148],red blood cell (RBC) lysis,[2],only moderate
RRVWRWVRRVWRWVRR [E35],morbidity and mortality,"[3]; 7 mice, systemically at 30 mpk",no apparent morbidity and mortality
same,"maximum tolerated dose, MTD","[3]; CD-1 mice, tail vein (IV)",30 mpk
"CCC(C)CCCC(=O)N[C@@H](CCN)C(=O)N[C@H](C(=O)N[C@@H](CCN)C(=O)N[C@H]1CCNC(=O)[C@H]([C@@H](C)O)NC(=O)[C@H](CCN)NC(=O)[C@H](CCN)NC(=O)[C@H](CC(C)C)NC(=O)[C@@H](CC(C)C)NC(=O)[C@H](CCN)NC1=O)[C@@H](C)O (stereo partly drawn) [Colistin, colistin, reference compound] ({Heptanoyl(5-Me)}-[Dab]T[Dab][Dab][Dab][dL]L[Dab][Dab]T; lactam 4-C)",MIC,"[4]; Klebsiella pneumoniae, colistin-resistant CDC AR isolate KP46, read-out: MIC",4 µM
same,MIC,"[4]; Klebsiella pneumoniae, colistin-resistant CDC AR isolate KP87, read-out: MIC",> 16 µM
same,MIC,"[4]; Klebsiella pneumoniae, colistin-resistant CDC AR isolate KP125, read-out: MIC",8 µM
same,MIC,"[4]; Klebsiella pneumoniae, colistin-resistant CDC AR isolate KP507, read-out: MIC",16 µM
same,MIC,"[4]; Klebsiella pneumoniae, colistin-resistant CDC AR isolate KP1010, read-out: MIC",16 µM
same,MIC,"[4]; Klebsiella pneumoniae, colistin-resistant CDC AR isolate KP1041, read-out: MIC",> 16 µM
same,MIC,"[4]; Klebsiella pneumoniae, colistin-resistant CDC AR isolate KP1045, read-out: MIC",> 16 µM
same,MIC,"[4]; Klebsiella pneumoniae, strain KP542, CDC, MHB2, read-out: MIC",> 16 µM
same,MIC,"[4]; Klebsiella pneumoniae, strain KP548, CDC, MHB2, read-out: MIC",0.25 µM
same,MIC,"[4]; Klebsiella pneumoniae, strain KP550, CDC, MHB2, read-out: MIC",0.25 µM
same,MIC,"[4]; Klebsiella pneumoniae, strain KP552, CDC, MHB2, read-out: MIC",0.25 µM
same,MIC,"[4]; strain KPA5, initial MDR panel (Table 5)",colistin-resistant phenotype
same,mean MIC,"[5]; GNB and GPB of the initial MDR panel, MHB2",lowest mean MIC
same,activity against the GPB strains,[5]; GPB strains of the initial MDR panel (Table 5),inactive
same,MIC,"[6]; strain PA216, CDC",1 µM
same,MIC,"[6]; strain PA229, CDC",> 16 µM
same,MIC,"[6]; strain PA230, CDC",1 µM
same,MIC,"[6]; strain PA231, CDC",1 µM
same,MIC,"[7]; strain Eco541, CDC",1 µM
same,MIC,"[7]; strain Eco543, CDC",8 µM
same,MIC,"[7]; strain Eco546, CDC",0.25 µM
same,MIC,"[7]; strain Eco549, CDC",1 µM
same,MIC,[8]; CDC AR isolate AB288 (colistin resistance not confirmed),1 µM
same,MIC,[8]; CDC AR isolate AB300 (colistin resistance not confirmed),1 µM
same,MIC,[8]; CDC AR isolate AB301 (colistin resistance not confirmed),1 µM
same,MIC,[8]; CDC AR isolate AB303 (colistin resistance not confirmed),0.5 µM
same,MIC,"[8]; strain AB273, CDC, MHB2",0.5 µM
same,MIC,"[8]; strain AB274, CDC, MHB2",0.25 µM
same,MIC,"[8]; strain AB275 (first line r9), CDC, MHB2",0.25 µM
same,MIC,"[8]; strain AB275 (second line r10), CDC, MHB2",0.5 µM
same,MIC,[9]; strain EA62 (aerogenes),2 µM
same,MIC,[9]; strain EA547 (aerogenes),0.25 µM
same,MIC,[9]; strain EC544 (cloacae),4 µM
same,MIC,[9]; strain EC545 (cloacae),2 µM
same,MIC,"[10]; Enterococcus faecium, strain EF673, CDC",> 16 µM
same,MIC,"[10]; strain EF500, CDC",>16 µM
same,MIC,"[10]; strain EF671, CDC",>16 µM
same,MIC,"[10]; strain EF672, CDC",>16 µM
same,MIC,"[11]; Staphylococcus aureus, strain SA461, CDC",> 16 µM
same,MIC,"[11]; strain SA462, CDC",>16 µM
same,MIC,"[11]; strain SA463, CDC",>16 µM
same,MIC,"[11]; strain SA561, CDC",>16 µM
NC[C@H]1O[C@H](O[C@H]2[C@H](O)[C@@H](O[C@H]3O[C@H](CO)[C@@H](O)[C@H](N)[C@H]3O)[C@H](N)C[C@@H]2N)[C@H](N)C[C@@H]1O [tobramycin],PI incorporation by real-time video imaging,[12],did not demonstrate any markedly detectable intracellular PI
same,bacterial killing,[13],did not display any substantial bacterial killing
same,bacterial cells killed within the first minute of treatment,[14],non-effective
